Source: paper PMC2816717, “Active Fragments from Pro- and Antiapoptotic BCL-2 Proteins Have Distinct Membrane Behavior Reflecting Their Functional Divergence” (PLoS ONE, 2010)

How the values were obtained:
[1] = Langmuir monolayer penetration assay at constant area; type: physicochemical; conditions: POPC/DOPE/CL
Description: (§1) For the biophysical characterization of membrane active protein fragments, we have used Langmuir monolayers as in vitro model of lipid membranes. These supramolecular lipid films formed at the air-water interface are attractive membrane models, widely used for studying peptide-lipid interactions, [56], [57]. We have investigated the binding of peptides derived from the central helices of BAX, BCL-xL and BID at physiological pH with model phospholipid monolayers of a composition that imitates mitochondrial membranes. For this purpose we selected fragments encompassing the sequences corresponding to the first or second α-helices of the core hairpins of BAX, BCL-xL and BID, as defined in the water-soluble protein structures, [17], [19]. Because the structures of those proteins in a membrane environment is currently unavailable, for the case of the first hairpin helix of BAX and BCL-xL (α5) we analyzed both a short version (labeled “S”), including only the reported α-helical residues, and a long version (labeled “L”) that extends a few residues beyond the α-helix stretch at both ends. Divergence of the BID sequence precluded unambiguous alignment with the other two proteins and a similar peptide design. Peptides corresponding to the BH3 domain of BAX, BCL-xL and BID were also included in the study. The sequence and some general properties of the peptides analyzed in this study are described in Table 1 and Figure 1). Lipid mixtures of POPC/DOPE (2∶1) and POPC/DOPE/CL (1∶1∶1) were chosen to mimic the MOM and the contact sites between inner and outer mitochondrial membrane (MIM/MOM), respectively. Penetration assays were carried out at constant area by spreading the lipids at the air-buffer interface, compressing the film at πi = […] and then injecting the peptides into the subphase at a concentration of 0.2 µM (see Material and Methods). Subsequent peptide binding results typically in an increase of surface pressure. Thus, the peptide-monolayer interaction can be characterized by measurable kinetic properties, such as the initial velocity of surface pressure increase (Vi), which informs about the affinity of the peptide for the lipid-water interface, and the final increase of surface pressure (πmax), which can be related to the insertion ability of the peptide into the monolayer.
(§2) Monolayer experiments were performed on a computer-controlled Langmuir film balance (KSV 2000, three multi-compartment system, KSV Instrument Ltd., Finland) working in a symmetrical compression mode and enclosed in an opaque cabinet. The rectangular trough (V = 85 mL ±1 mL, S = 119.25 cm^2) was made of Teflon and the mobile barriers were made in Delrin. The surface pressure, π defined as γ0 – γ, where γ0 is the surface tension of the pure aqueous subphase and γ the surface tension exerted by phospholipids at the subphase surface, was measured by the Wilhelmy's method using a platinum plate with an accuracy of ±0.05 mN/m. The trough was filled with Hepes buffer (pH 7.4), used as subphase and thermostated with a water circulating bath (Lauda E100, LAUDA France, SARL). In all experiments, the subphase temperature was maintained at a constant value of 22.5±0.5°C.
Phospholipid monolayers were formed by deposition of 14 µl of spreading solutions at a clean air/buffer interface by means of a micropipette to reach a final amount of 14 nmol of phospholipids. After complete evaporation of the solvent (∼15 min), the monolayer was slowly compressed up to a defined lateral pressure (initial surface pressure πi) at a rate of 0.045 nm^2 molecule^−1 min^−1. The value of πi = 5 mN/m was chosen because it lies between the surface pressure set-off and surface pressures (e.g. 30 mN/m, which corresponds to a tightly packed film) where many peptides of the study will not insert. […]

[2] = Langmuir monolayer penetration assay, lipid mixture not singled out (Figure 5); type: physicochemical; conditions: Figure 5A; πi 5 mN/m, peptide 0.2 µM, Hepes pH 7.4, duplicate
Description: as §1
Figure 5 Changes in surface pressure after peptide injection. Peptides were injected underneath POPC/DOPE or POPC/DOPE/CL monolayers at constant area. A. Final increase of surface pressure πmax (mN/m) obtained for the different peptides. The dashed line denotes the threshold (Δπ = 4.8 mN/m) for significant surface pressure variation as determined using BAX-α5S without lipids (see text). B. Initial velocity of surface pressure increase (Vi = Δπ/s).
as §2
Phospholipid monolayers were formed by deposition of 14 µl of spreading solutions at a clean air/buffer interface by means of a micropipette to reach a final amount of 14 nmol of phospholipids. […]

In the case of “WGRVVALFYFASKLVLKALSTK [BAX-α5S, short peptide of the first helix (α5) of the central hairpin of BAX]”, the “surface pressure increase (Δπ) with lipid monolayer” value ([1]; initial surface pressure 5 mN/m, peptide 0.2 µM in subphase, Hepes pH 7.4, 22.5°C, constant area) is reported as 32.1 mN/m, the “πmax (plateau surface pressure after peptide injection)” value ([1]; πi = 5 mN/m, peptide injected underneath monolayer, compression-decompression experiment) is reported as 32.1 mN/m and the “exclusion pressure (πex)” value ([1]; extrapolation of linear Δπ versus πi plot to Δπ = 0) is reported as 33 mN/m. For the same sequence, the “final increase of surface pressure πmax (insertion), in words” value [2] was “highest increases in surface pressure”.
